From US20240197871A1, “COMBINATION OF A CAR T CELL THERAPY AND AN IMMUNOMODULATORY COMPOUND FOR TREATMENT OF LYMPHOMA” (Juno Therapeutics, Inc., priority 2021, published 2024)

Columns and labels:
Ikaros = target: T1, Ikaros (Homo sapiens, UniProt Q13422+Q96SW2); assay: Ikaros levels in anti-CD19 CAR T cells after 24-hour or six-day exposure; assay type: cell-based
T1 construct: analyzed by flow cytometry to assess intracellular levels of Ikaros and Aiolos in CAR+ T cells; endogenous in cells; host or cells: primary human CD4+ and CD8+ T cells from healthy donors, lentivirally transduced with an anti-CD19 CAR
Protocol: Due to the robust impact of Compound C on degradation of Ikaros and Aiolos, in which excessive or sustained treatment may impact CAR T cell function negatively and/or cause neutropenia secondary to neutrophil maturation arrest, an intermittent dosing schedule for treatment with Compound C was evaluated for its ability to effect deep, but transient degradation of Ikaros. To do so, the pharmacokinetics of a weekly (Q7D) 0.3-mg dose of Compound C were modelled. […] The effects of a weekly 0.3-mg dose of Compound C on neutrophil development were also modelled.
FIGS. 6B and 6C show Ikaros levels in anti-CD19 CAR T cells, generated as described in Example 1, following 24-hour (FIG. 6B) or six-day exposure (FIG. 6C) to Compound C.

Aiolos = target: T2, Aiolos (Homo sapiens, UniProt Q96SW2+Q9UKT9); assay: Aiolos degradation in stimulated anti-CD19 CAR T cells (flow cytometry MFI); assay type: cell-based
T2 construct: analyzed by flow cytometry to assess intracellular levels of Ikaros and Aiolos in CAR+ T cells; endogenous in cells; host or cells: primary human CD4+ and CD8+ T cells from healthy donors, lentivirally transduced with an anti-CD19 CAR
Text: T cell compositions containing anti-CD19 CAR-expressing T cells were generated from leukapheresis samples from five healthy human adult donors by a process that included immunoaffinity-based selection of T cells by separately selecting CD4+ and CD8+ cells from the samples, resulting in two compositions enriched for CD4+ and CD8+ cells, respectively, per donor. Cells of the enriched CD4+ and CD8+ compositions were separately activated with anti-CD3/anti-CD28 beads and subjected to lentiviral transduction with a vector encoding an anti-CD19 CAR. The anti-CD19 CAR contained an anti-CD19 single-chain variable fragment (scFv) derived from a murine antibody (variable region derived from FMC63), an immunoglobulin-derived spacer, a transmembrane domain derived from CD28, a costimulatory region derived from 4-1BB, and a CD3-zeta intracellular signaling domain. The expression construct in the viral vector further contained sequences encoding a surrogate surface marker for CAR expression, which was separated from the CAR-encoding sequence by a T2A ribosome skip sequence. Transduced populations then were separately incubated in the presence of stimulating reagents for cell expansion. Expanded CD4+ and CD8+ cells were formulated and cryopreserved separately and stored.
Prior to use, the cryopreserved CD4+ and CD8+ engineered cell compositions were thawed and combined at approximately a 1:1 CD4:CD8 ratio for each donor. Cells of the combined composition were then stimulated at 37° C. with 5% CO2 for 24 hours with 30 µg/mL of a CAR-specific anti-idiotypic antibody (see, e.g., WO2018/023100).
Following incubation, the stimulated cells were stained with antibodies and analyzed by flow cytometry to assess intracellular levels of Ikaros and Aiolos in CAR+ T cells, as measured by median fluorescence intensity (MFI). MFI values for Ikaros and Aiolos were normalized and calculated as a percentage relative to vehicle control.

[1] = tested on: Granta-519 lymphoma tumor spheroids; assay: Concentration levels: tumor cell number during re-challenge, concurrent or rescue treatment; assay type: cell-based
Protocol: Different concentrations of Compound C were tested for their effects on cytolytic function of CAR T cells following chronic stimulation. CAR T cells were treated with various concentrations of Compound C either during or after chronic stimulation.
Anti-CD19 CAR-expressing T cells, produced as described in Example 1, were chronically stimulated as described in Example 3 (with Compound C present during chronic stimulation), then re-challenged with Granta-519 lymphoma tumor spheroids in the absence of Compound C (concurrent treatment group). In addition, anti-CD19 CAR-expressing T cells were chronically stimulated as described in Example 4 (with Compound C absent during chronic stimulation), then re-challenged with Granta-519 lymphoma tumor spheroids in the presence of Compound C (rescue treatment group). During re-challenge, cytolytic activity was assessed by tumor cell number at various times during co-culture with CAR-T cells.
In both treatment conditions, tumor cell number was reduced compared to control conditions for CAR T cells treated with Compound C at a 0.001 μM concentration. Also in both treatment groups, tumor cell number was higher compared to control conditions for CAR T cells treated with Compound C at 0.01 μM and 0.1 μM concentrations.

[2] = tested on: chronically stimulated anti-CD19 CAR T cells; assay: RNA-seq gene expression of chronically stimulated CAR T cells; assay type: cell-based, human
Protocol: Five days after re-challenge, CAR T cells were sorted from tumor spheroids, and gene expression was analyzed by RNA sequencing (RNA-seq). Libraries for RNA-seq were sequenced, and reads were mapped to the Genome Reference Consortium Human Build 38 (GRCh38) human reference genome. Gene expression levels were quantified, and differential expression was performed using DESeq2. Gene expression was compared between chronically stimulated CAR T cells treated with Compound C during stimulation and untreated chronically stimulated CAR T cells, as well as between untreated chronically stimulated CAR T cells and non-stimulated CAR T cells. Differential expression was calculated based on treatment effects with 1 nM and 10 nM of the compounds. Differential locus selection cut offs were q≤0.05 and absolute log2 fold change ≥0.5.
Pathway analysis of CAR T RNA-seq data using the Kyoto Encyclopedia of Genes and Genomes (KEGG) was also performed using clusterProfiler. Pathways whose upregulation by chronic stimulation was prevented or reduced by treatment with Compound C are shown in FIG. 3J and include specific cell proliferation pathways. Gene ratios as shown in FIG. 3J were calculated as the percentage of significant genes over total genes in a given pathway.
Gene expression of chronically stimulated CAR T cells was also analyzed by RNA sequencing as in Example 3. […]

T2 sequence (Q9UKT9 whole entry): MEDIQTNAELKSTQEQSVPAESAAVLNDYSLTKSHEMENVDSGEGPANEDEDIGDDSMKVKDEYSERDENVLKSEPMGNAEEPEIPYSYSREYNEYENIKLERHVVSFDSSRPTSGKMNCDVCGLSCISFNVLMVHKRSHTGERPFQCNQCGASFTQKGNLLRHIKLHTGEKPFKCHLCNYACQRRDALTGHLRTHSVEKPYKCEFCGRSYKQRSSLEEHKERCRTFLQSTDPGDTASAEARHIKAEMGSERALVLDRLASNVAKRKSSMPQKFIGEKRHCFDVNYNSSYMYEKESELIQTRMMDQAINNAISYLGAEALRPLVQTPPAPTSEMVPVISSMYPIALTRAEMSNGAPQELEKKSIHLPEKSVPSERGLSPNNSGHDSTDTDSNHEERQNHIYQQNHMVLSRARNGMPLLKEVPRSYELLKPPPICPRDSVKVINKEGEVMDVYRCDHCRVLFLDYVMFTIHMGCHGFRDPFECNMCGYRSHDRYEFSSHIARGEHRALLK
T2 sequence (Q96SW2 whole entry): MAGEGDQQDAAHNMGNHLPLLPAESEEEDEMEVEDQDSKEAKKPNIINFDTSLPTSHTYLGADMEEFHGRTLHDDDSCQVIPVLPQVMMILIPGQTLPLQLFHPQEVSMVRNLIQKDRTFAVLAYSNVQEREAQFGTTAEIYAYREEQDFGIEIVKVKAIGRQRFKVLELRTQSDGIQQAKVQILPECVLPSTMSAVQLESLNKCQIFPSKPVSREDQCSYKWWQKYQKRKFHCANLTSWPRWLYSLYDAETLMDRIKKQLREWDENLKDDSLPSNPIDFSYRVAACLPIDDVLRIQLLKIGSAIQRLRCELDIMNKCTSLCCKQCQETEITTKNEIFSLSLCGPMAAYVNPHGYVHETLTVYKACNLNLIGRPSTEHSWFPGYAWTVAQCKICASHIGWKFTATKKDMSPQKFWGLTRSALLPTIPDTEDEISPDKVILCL
T2 sequence (Q16531 whole entry partner): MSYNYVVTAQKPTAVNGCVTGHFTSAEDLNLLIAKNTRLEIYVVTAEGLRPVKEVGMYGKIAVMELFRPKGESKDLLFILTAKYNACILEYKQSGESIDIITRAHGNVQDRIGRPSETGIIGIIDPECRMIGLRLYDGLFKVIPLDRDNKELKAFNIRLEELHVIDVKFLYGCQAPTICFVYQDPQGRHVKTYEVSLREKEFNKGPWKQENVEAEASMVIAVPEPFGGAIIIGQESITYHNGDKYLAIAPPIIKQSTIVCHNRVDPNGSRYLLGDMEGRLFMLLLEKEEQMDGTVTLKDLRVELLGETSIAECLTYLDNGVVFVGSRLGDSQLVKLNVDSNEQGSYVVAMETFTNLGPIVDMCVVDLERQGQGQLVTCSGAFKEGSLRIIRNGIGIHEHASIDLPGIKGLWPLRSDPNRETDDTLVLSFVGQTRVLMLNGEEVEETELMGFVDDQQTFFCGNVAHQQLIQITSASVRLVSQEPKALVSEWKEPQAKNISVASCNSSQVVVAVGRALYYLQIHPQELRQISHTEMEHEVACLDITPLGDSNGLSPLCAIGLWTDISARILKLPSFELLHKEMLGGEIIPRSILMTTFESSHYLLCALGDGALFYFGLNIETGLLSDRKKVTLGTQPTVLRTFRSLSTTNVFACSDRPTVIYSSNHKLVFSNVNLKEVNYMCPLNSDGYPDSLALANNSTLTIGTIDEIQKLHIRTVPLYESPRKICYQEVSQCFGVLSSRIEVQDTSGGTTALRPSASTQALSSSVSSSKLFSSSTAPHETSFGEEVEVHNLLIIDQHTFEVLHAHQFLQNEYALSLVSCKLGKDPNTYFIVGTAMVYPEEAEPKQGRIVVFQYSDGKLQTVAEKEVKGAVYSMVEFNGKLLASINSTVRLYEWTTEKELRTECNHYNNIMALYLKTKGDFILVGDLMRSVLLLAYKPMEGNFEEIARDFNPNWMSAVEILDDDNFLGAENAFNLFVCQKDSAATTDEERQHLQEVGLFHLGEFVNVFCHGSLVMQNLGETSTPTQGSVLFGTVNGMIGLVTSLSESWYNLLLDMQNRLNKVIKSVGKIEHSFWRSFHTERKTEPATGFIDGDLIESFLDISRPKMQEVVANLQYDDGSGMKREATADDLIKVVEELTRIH
T1 sequence (Q13422 whole entry): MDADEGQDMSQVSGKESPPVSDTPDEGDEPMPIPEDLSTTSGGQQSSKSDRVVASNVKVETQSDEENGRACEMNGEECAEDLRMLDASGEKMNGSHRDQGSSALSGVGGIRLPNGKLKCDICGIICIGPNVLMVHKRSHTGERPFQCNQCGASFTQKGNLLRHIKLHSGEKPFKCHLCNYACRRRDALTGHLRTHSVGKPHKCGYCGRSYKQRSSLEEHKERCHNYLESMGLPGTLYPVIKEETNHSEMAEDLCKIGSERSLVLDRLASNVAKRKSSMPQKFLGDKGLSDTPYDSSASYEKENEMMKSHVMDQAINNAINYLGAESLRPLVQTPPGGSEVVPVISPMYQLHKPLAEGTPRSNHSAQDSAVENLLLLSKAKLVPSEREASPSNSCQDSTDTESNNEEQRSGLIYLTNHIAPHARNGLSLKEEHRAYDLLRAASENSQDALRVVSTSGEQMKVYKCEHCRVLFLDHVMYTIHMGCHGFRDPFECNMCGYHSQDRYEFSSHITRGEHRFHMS
T1 sequence (Q96SW2 whole entry): as the sequence (Q96SW2 whole entry) above
T1 sequence (Q16531 whole entry partner): as the sequence (Q16531 whole entry partner) above

Ikaros levels in anti-CD19 CAR T cells (Ikaros; 24-hour exposure, dose levels as low as 0.01 μM): lead to Ikaros degradation
Ikaros levels in anti-CD19 CAR T cells (Ikaros; six-day exposure to 0.001 μM): did not affect Ikaros levels
DC50 (Aiolos; anti-CD19 CAR T cells, 24 hours stimulation with anti-idiotypic antibody, concentration reducing MFI to 50%, average of five donors, read-out: Average EC50 Values (95% Confidence Interval), Aiolos): 250 pM
intracellular Aiolos expression (MFI relative to vehicle control) (Aiolos; approximately 10^-1 to 10^4 nM, 24 hours): Concentration-dependent decreases
Aiolos expression compared with Compound 2 or Compound 1 (Aiolos; at all compound concentration levels tested): lower
Structure (SMILES): O=C1CC[C@H](N2C(=O)c3cccc(NCc4ccc(CN5CC(N6CCOCC6)C5)cc4F)c3C2=O)C(=O)N1 [Compound C, (S)-2-(2,6-dioxopiperidin-3-yl)-4-((2-fluoro-4-((3-morpholinoazetidin-1-yl)methyl)benzyl)amino)isoindoline-1,3-dione]
tumor cell number compared to control conditions ([1]; concurrent treatment, 0.001 μM): reduced
tumor cell number compared to control conditions ([1]; concurrent treatment, 0.01 μM): higher
tumor cell number compared to control conditions ([1]; concurrent treatment, 0.1 μM): higher
tumor cell number compared to control conditions ([1]; rescue treatment, 0.001 μM): reduced
tumor cell number compared to control conditions ([1]; rescue treatment, 0.01 μM): higher
tumor cell number compared to control conditions ([1]; rescue treatment, 0.1 μM): higher
gene expression vs untreated chronically stimulated CAR T cells (RNA-seq) ([2]; treatment during chronic stimulation (concurrent), 1 nM and 10 nM): altered gene expression
gene expression vs untreated chronically stimulated CAR T cells (RNA-seq) ([2]; treatment during re-challenge (rescue)): altered gene expression
